Source: publication PMC12541587 (Acta Pharmaceutica Sinica. B, 2025)
Several values for one entry are separate records, joined by “and”; a condition that tells them apart may be missing. Identical values can stand only once. Like-named read-outs stand apart in the source and are kept apart here.

What was measured:
σ1R [1] = target: σ1R (Rattus norvegicus, UniProt Q9R0C9); experiment: biochemical; assay type: binding; details: for inhibition at 10 µM: read-out: σ1R Inhibition; for inhibition at 1 µM: read-out: σ1R inhibitory rate at 1 μmol/L
σ2R = target: T1, σ2R (Rattus norvegicus, UniProt Q5U3Y7); experiment: σ2R radioligand binding assay
T1 sequence (Q5U3Y7 1-176): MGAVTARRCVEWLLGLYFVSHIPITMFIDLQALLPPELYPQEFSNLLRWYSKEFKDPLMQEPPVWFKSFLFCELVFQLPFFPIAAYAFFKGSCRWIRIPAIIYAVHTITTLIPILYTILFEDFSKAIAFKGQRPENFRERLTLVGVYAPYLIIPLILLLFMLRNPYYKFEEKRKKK

σ1R [2] = assay type: binding, rat; details: Ki without DPH / Ki with DPH 250 μmol/L
CYP1A2 = target: T2, CYP1A2 (Homo sapiens, UniProt P05177); experiment: in vitro
T2 sequence (P05177 1-516): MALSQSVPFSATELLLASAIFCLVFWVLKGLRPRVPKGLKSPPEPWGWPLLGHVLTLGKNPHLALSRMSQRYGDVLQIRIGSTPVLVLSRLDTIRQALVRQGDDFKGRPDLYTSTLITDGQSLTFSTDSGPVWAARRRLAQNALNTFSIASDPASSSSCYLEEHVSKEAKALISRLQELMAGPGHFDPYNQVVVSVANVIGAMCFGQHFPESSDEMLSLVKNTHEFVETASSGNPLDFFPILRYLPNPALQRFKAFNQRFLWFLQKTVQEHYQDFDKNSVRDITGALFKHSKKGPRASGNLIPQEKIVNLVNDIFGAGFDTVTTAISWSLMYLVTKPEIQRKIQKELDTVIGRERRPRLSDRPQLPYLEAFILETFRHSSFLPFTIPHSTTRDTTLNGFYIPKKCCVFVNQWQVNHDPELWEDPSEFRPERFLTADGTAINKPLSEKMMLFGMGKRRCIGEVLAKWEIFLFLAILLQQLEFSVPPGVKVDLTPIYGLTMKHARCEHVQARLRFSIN

CYP2C19 = CYP2C19 (Homo sapiens, UniProt P33261); experiment: CYP450 inhibition: CYP2C19; details: probe S-mephenytoin (35 μmol/L)
σ1R-LgBiT and BiP-SmBiT = σ1R-LgBiT and BiP-SmBiT (Homo sapiens, UniProt Q99720); experiment: NanoBiT σ1R-BiP heterodimerization assay; assay type: cell-based; details: 10 μmol/L
σ1R [3] = details: read-out: σ1R Ki (clinical σ1R agonists); cited from earlier work
dopamine D3 = details: read-out: dopamine D3 Ki; cited from earlier work
σ1R [4] = details: healthy volunteers and Huntington disease patients; cited from earlier work
D2/D3 receptor = details: healthy volunteers and Huntington disease patients; cited from earlier work
catalepsy = experiment: Catalepsy bar test; assay type: in vivo, mice

Sequence of σ1R (Rattus norvegicus, UniProt Q9R0C9) (Q9R0C9 whole entry): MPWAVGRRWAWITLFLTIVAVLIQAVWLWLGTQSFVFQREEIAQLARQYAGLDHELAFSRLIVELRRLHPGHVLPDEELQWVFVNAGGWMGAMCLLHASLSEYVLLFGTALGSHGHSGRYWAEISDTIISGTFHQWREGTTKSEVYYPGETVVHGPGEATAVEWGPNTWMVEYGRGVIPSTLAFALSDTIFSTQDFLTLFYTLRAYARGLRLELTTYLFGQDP
Sequence of CYP2C19 (P33261 whole entry): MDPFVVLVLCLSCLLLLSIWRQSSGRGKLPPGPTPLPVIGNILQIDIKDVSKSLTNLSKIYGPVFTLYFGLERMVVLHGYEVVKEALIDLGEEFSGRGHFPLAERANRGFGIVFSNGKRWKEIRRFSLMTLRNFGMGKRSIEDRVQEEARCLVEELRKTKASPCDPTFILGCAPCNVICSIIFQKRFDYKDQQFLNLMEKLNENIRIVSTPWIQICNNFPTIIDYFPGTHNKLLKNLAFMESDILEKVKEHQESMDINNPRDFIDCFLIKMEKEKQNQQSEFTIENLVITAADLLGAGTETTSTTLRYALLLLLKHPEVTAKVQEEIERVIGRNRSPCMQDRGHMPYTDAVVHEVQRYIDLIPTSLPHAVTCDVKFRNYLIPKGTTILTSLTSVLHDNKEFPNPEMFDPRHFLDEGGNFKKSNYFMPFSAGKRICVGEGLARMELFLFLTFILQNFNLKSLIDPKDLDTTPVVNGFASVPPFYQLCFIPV
Sequence of σ1R-LgBiT and BiP-SmBiT (Q99720 whole entry): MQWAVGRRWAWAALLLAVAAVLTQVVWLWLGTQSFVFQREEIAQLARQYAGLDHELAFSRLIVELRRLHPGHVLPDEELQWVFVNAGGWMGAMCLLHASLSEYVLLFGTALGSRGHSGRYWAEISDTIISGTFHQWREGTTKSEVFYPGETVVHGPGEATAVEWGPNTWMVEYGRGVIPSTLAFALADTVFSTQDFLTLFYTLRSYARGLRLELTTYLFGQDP

SMILES: COc1ccc(/C(C)=N/OCCCN2CCCCC2)cc1 [15l]
- Ki (σ1R [1]): 39.4 ± 3.4 nM
- inhibition at 10 µM (σ1R [1]): 93.2%

SMILES: FC(F)(F)c1ccc2c(c1)OCC/C2=N\OCCCN1CCCCC1 [15o]
- Ki (σ1R [1]): 76.2 ± 2.92 nM
- inhibition at 10 µM (σ1R [1]): 99.3%

SMILES: C/C(=N\OCCN1CCOCC1)c1ccccc1 [16p]
- inhibition at 10 µM (σ1R [1]): 74.4%
- inhibition at 1 µM (σ1R [1]): -8.25%

SMILES: COc1ccc(/C(C)=N/OCCN2CCOCC2)cc1 [16q]
- inhibition at 10 µM (σ1R [1]): 93.2%
- inhibition at 1 µM (σ1R [1]): 37.8%

SMILES: C/C(=N\OCCN1CCOCC1)c1ccc(Br)cc1 [16r]
- inhibition at 10 µM (σ1R [1]): 106%
- inhibition at 1 µM (σ1R [1]): 55.4%

SMILES: C/C(=N\OCCN1CCOCC1)c1ccc(C)cc1 [16s]
- inhibition at 10 µM (σ1R [1]): 66.2%

SMILES: CC(C)=CCN1CC[C@]2(C)c3cc(O)ccc3C[C@H]1[C@H]2C [(+)-Pentazocine]
- inhibition at 10 µM (σ1R [1]): 99%
- Ki (σ2R): 673 ± 27.5 nM

SMILES: CN(C)CCN(C)CCc1ccc(Cl)c(Cl)c1 [BD1047]
- Ratios Ki/(Ki + phenytoin) (σ1R [2]): 0.63 ± 0.20
- Ki (σ1R [1]; read-out: σ1R Ki, mean ± SEM, n = 3): 0.87 ± 0.15 nM

SMILES: COCCCC/C(=N\OCCN)c1ccc(C(F)(F)F)cc1 [Fluvoxamine]
- inhibition at 10 μmol/L (CYP1A2): 95.7%
- inhibition at 10 µM (σ1R [1]): 81.8%
- inhibition at 10 μmol/L (CYP2C19): 95%

SMILES: O=C(OCCN1CCOCC1)C1(c2ccccc2)CCCCC1 [PRE084]
- σ1R-LgBiT/BiP-SmBiT interaction, 10 min treatment (σ1R-LgBiT and BiP-SmBiT): decreased this interaction
- Ki (σ1R [1]; read-out: σ1R Ki): 23.1 ± 3.17 nM

SMILES: CCCN1CCC(c2cccc(S(C)(=O)=O)c2)CC1 [Pridopidine]
- Ki (σ1R [3]): 57 nM
- Ki (dopamine D3): 1630 nM
- σ1R occupancy (PET) (σ1R [4]): ~90%
- D2/D3 receptor occupancy (PET) (D2/D3 receptor): ~3%

SMILES: C=CCN1CCC2(C)c3cc(O)ccc3CC1C2C (stereo not shown) [SKF10047]
- Ratios Ki/(Ki + phenytoin) (σ1R [2]): 7.10 and 7.10 ± 0.74
- Ki (σ1R [1]): 292 ± 6.18 nM

SMILES: Cc1nc2n(c(=O)c1CCN1CCC(c3noc4cc(F)ccc34)CC1)CCCC2 [risperidone]
- mean catalepsy duration at peak response (catalepsy; 3 mg/kg risperidone, 60 min post-administration): 49.57 min
- cataleptic response (catalepsy; oral, 15d 10 to 45 mg/kg, risperidone 3 mg/kg): catalepsy induced by 3 mg/kg risperidone was observed
